Reference: patent US6387889B1, “Medicinal compositions for treating eye diseases” (Yamasa Corporation, priority 1998, dated 2002)

Tests used:
[1] = test system: rabbit of normal ocular tension; experiment: Test Example 2: effect of lowering ocular tension after instillation of test compound to rabbit of normal ocular tension; type: in vivo, Japanese white male rabbits; details: 0.1% (W/V), 50 μL instilled; for AUC: area under curve of time vs difference in ocular tension between treated eye and eye drop base eye, up to 480 minutes; for Emax: maximum difference in ocular tension between treated eye and eye drop base eye
Experimental: Compounds shown in Table 1 were used as test compounds. Each compound was dissolved in saline containing polysorbate 80 (hereinafter the saline will be referred to as “eye drop base A”) or in an aqueous solution of boric acid buffer (pH 7.0) containing polysorbate 80 (hereinafter the solution will be referred to as “eye drop base B”) (polysorbate 80 content of each base: 5 mg/mL), to thereby obtain a test solution. The amount of each compound in the resultant solution was 0.1% (W/V). The eye drop bases were employed as a control.
Japanese white male rabbits (Kitayama Labes Co., Ltd.) (weight: 2.1-3.2 kg) were employed in the test. The rabbits were retained in a box-type fixation apparatus and employed in the test.
The ocular tension of each rabbit was measured by use of Model 30 Classic Pneumatonometer (product of Mentor) without anesthesia. Before the ocular tension was measured, 0.4% oxybuprocaine hydrochloride (Benoxil 0.4% eye drop solution, product of Santen Pharmaceutical Co., Ltd.) was instilled to the eyes of each rabbit, to thereby anesthetize the surface of the cornea. The ocular tension of each rabbit was measured several times at regular intervals. After the ocular tension became stable, the ocular tension was measured three times, and the average value was employed as the ocular tension.
A 0.1% solution of each test compound (50 μL) was instilled to one eye of each of the respective rabbits, and simultaneously the eye drop base (50 μL) was instilled to the remaining eye. The ocular tensions of both eyes were measured 60 minutes before instillation of the test compound; 0 minute immediately before instillation; and 30, 60, 90, 120, 150, 180, 240, 300, 360, 420, and 480 minutes after instillation. Two to six rabbits were employed for each test compound. For control, the eye drop base was instilled to both eyes of each respective rabbit, and the ocular tension was measured in a manner similar to that described above.
For each test compound, the effect of lowering ocular tension was evaluated on the basis of the following values: the area under the curve of time versus change in difference between the ocular tension of the eye to which the test compound was instilled and that of the eye to which the eye drop base was instilled (hereinafter the area will be abbreviated as AUC (mmHg·min)); and the maximum value of difference between the ocular tension of the eye to which the test compound was instilled and that of the eye to which the eye drop base was instilled (hereinafter the value will be abbreviated as Emax (mmHg)).

[2] = Test Example 3: single oral dose toxicity in rats; details: both sexes, SD, in vivo, rat, observed for two weeks, maximum dose
Experimental: To six-week-old male and female SD rats (six for each group), 2-(1-octynyl)adenosine was administered orally at a single dose of 521, 729, 1020, 1429, or 2000 mg/kg.

[3] = Test Example 3: single oral dose toxicity in dogs; details: both sexes, beagle, in vivo, dog, observed for two weeks, maximum dose
Experimental: To nine-month-old male and female beagle dogs (two for each group), 2-(1-octynyl)adenosine was administered orally at a single dose of 50, 150, or 450 mg/kg.

[4] = test system: ocular tension in rabbits; experiment: Test Example 1: ocular tension after instillation to rabbits (FIGS. 1 and 2); type: in vivo, New Zealand white male rabbits; details: 0.03% and 0.1% (W/V) in 15% aqueous dimethyl sulfoxide, 50 μL instilled once; 15-180 minutes after instillation; CGS-21680 0.1% (w/v)
Experimental: 2-(1-Octynyl)adenosine, 2-(3-hydroxy-1-propynyl)adenosine, and CGS-21680 [2-((4-(2-carboxyethyl)phenylethyl)amino)adenosine-5′-N-ethyluronamide] were used as test compounds. Each compound was dissolved in a 15% aqueous solution of dimethyl sulfoxide (hereinafter the solution will be referred to as an “eye drop base”), to thereby obtain a test solution. The amounts of 2-(1-octynyl)adenosine and 2-(3-hydroxy-1-propynyl)adenosine were 0.03% (W/V) and 0.1% (W/V), respectively. The amount of CGS-21680 in the resultant solution was 0.1% (w/v). The eye drop base was employed as a control.
New Zealand white male rabbits (Tokyo Jikken Dobutsu) (weight: 2.2-3.1 kg) were employed in the test. […]
The ocular tension of each rabbit was measured by use of an applanation pneumatonometer (Alcon, PTG) without anesthesia. Before the ocular tension was measured, 0.4% oxybuprocaine hydrochloride (Benoxil 0.4% eye drop, product of Santen Pharmaceutical Co., Ltd.) was instilled to the eyes of each rabbit, to thereby anesthetize the surface of the cornea. Before administration of drugs, the ocular tension of each rabbit was measured several times at 15-minute intervals until the ocular tension became stable. After the ocular tension became stable, the ocular tension was measured three times, and the average value was employed as the normal ocular tension. […]

[5] = eye drop base A (saline with polysorbate 80)
[6] = eye drop base B (boric acid buffer pH 7.0 with polysorbate 80)

SMILES | AUC [1, 5] [mmHg.min] | Emax [1, 5] [mmHg] | AUC [1, 6] [mmHg.min] | Emax [1, 6] [mmHg] | also measured
CCNC(=O)[C@H]1O[C@@H](n2cnc3c(N)nc(NCCc4ccc(CCC(=O)O)cc4)nc32)[C@H](O)[C@@H]1O [CGS-21680, 2-((4-(2-carboxyethyl)phenylethyl)amino)adenosine-5′-N-ethyluronamide, reference compound] | −508.1 | −2.5 |  |  | 
CCCCC#Cc1nc(N)c2ncn([C@@H]3O[C@H](CO)[C@@H](O)[C@H]3O)c2n1 [Compound 1, 2-(1-hexynyl)adenosine] |  |  | −1236.0 | −4.6 | 
CCCCCCC#Cc1nc(N)c2ncn([C@@H]3O[C@H](CO)[C@@H](O)[C@H]3O)c2n1 [Compound 2, 2-(1-octynyl)adenosine] | −1093.5 | −4.2 |  |  | LD50 at 2 weeks [2]: ≥ 2000 mg/kg; LD50 at 2 weeks [3]: ≥ 450 mg/kg; effect of lowering ocular tension (ΔIOP) [4]: excellent effect of lowering ocular tension, as compared with CGS-21680
Nc1nc(C#CCCCCN2C(=O)c3ccccc3C2=O)nc2c1ncn2[C@@H]1O[C@H](CO)[C@@H](O)[C@H]1O [Compound 3, 2-(6-phthalimidyl-1-hexynyl)adenosine] | −1471.0 | −6.3 |  |  | 
Nc1nc(C#CCO)nc2c1ncn2[C@@H]1O[C@H](CO)[C@@H](O)[C@H]1O [Compound 4, 2-(3-hydroxy-1-propynyl)adenosine] | −955.6 | −4.3 |  |  | effect of lowering ocular tension (ΔIOP) [4]: excellent effect of lowering ocular tension, as compared with CGS-21680
Nc1nc(C#CC(O)c2ccccc2)nc2c1ncn2[C@@H]1O[C@H](CO)[C@@H](O)[C@H]1O (stereo partly drawn) [Compound 5, 2-(3-hydroxy-3-phenyl-1-propynyl)adenosine] | −1185.6 | −4.8 |  |  | 
CCOCC#Cc1nc(N)c2ncn([C@@H]3O[C@H](CO)[C@@H](O)[C@H]3O)c2n1 [Compound 6, 2-(3-ethoxy-1-propynyl)adenosine] | −1538.3 | −5.3 |  |  | melting point: 120 to 127 °C
CCCOCCC#Cc1nc(N)c2ncn([C@@H]3O[C@H](CO)[C@@H](O)[C@H]3O)c2n1 [Compound 7, 2-(4-propoxy-1-butynyl)adenosine] |  |  | −1828.5 | −4.9 | 
CCCCCCCCOCCC#Cc1nc(N)c2ncn([C@@H]3O[C@H](CO)[C@@H](O)[C@H]3O)c2n1 [Compound 8, 2-(4-octoxy-1-butynyl)adenosine] |  |  | −1683.0 | −5.4 | 
CCOCCCC#Cc1nc(N)c2ncn([C@@H]3O[C@H](CO)[C@@H](O)[C@H]3O)c2n1 [Compound 9, 2-(5-ethoxy-1-pentynyl)adenosine] |  |  | −1117.5 | −3.7 | 
Nc1nc(C#CCOC2CCCCC2)nc2c1ncn2[C@@H]1O[C@H](CO)[C@@H](O)[C@H]1O [Compound 10, 2-(3-cyclohexyloxy-1-propynyl)adenosine] | −945.9 | −4.3 |  |  | 
Nc1nc(C#CC2CCCC2)nc2c1ncn2[C@@H]1O[C@H](CO)[C@@H](O)[C@H]1O [Compound 11, 2-(2-cyclopentyl-1-ethynyl)adenosine] |  |  | −1532.7 | −4.4 | 
Nc1nc(C#CC2CCCCC2)nc2c1ncn2[C@@H]1O[C@H](CO)[C@@H](O)[C@H]1O [Compound 12, 2-(2-cyclohexyl-1-ethynyl)adenosine] |  |  | −1670.2 | −6.0 | 
Nc1nc(C#CCC2CCCC2)nc2c1ncn2[C@@H]1O[C@H](CO)[C@@H](O)[C@H]1O [Compound 13, 2-(3-cyclopentyl-1-propynyl)adenosine] |  |  | −1053.9 | −5.9 | 
Nc1nc(C#CCC2CCCCC2)nc2c1ncn2[C@@H]1O[C@H](CO)[C@@H](O)[C@H]1O [Compound 14, 2-(3-cyclohexyl-1-propynyl)adenosine] |  |  | −1053.2 | −4.0 | 
Nc1nc(C#CCCC2CCCC2)nc2c1ncn2[C@@H]1O[C@H](CO)[C@@H](O)[C@H]1O [Compound 15, 2-(4-cyclopentyl-1-butynyl)adenosine] |  |  | −1086.0 | −5.6 | 
CCCCC#Cc1nc(N)c2ncn([C@@H]3O[C@H](C(=O)NC)[C@@H](O)[C@H]3O)c2n1 [Compound 16, 2-(1-hexynyl)adenosine-4′-methylcarboxamide] | −1838.3 | −6.0 |  |  | 
